Test results published in PubChem BioAssay AID1595 (NINDS Approved Drug Screening Program, 2009).
Results filed as inconclusive are left out.

Test system: Drosophila SCA1 polyglutamine model, toxicity suppression
Assay: Polyglutamine toxicity reduction dose response, whole organism Drosophila SCA1 model (AID 1595)

| SMILES | EC50 [nM] |
| --- | --- |
| C[C@@H]1O[C@@H](O[C@H]2[C@H](Oc3cc(O)c4c(c3)O[C@H](c3ccc(O)cc3)CC4=O)O[C@H](CO)[C@@H](O)[C@@H]2O)[C@H](O)[C@H](O)[C@H]1O | 5000 |
| C=C1C2CC[C@H]3[C@]4(C)C[C@H](OC5OC(CO)C(OS(=O)(=O)O)C(OS(=O)(=O)O)C5OC(=O)CC(C)C)C[C@@H](C(=O)O)[C@H]4CC[C@]3(C2)[C@H]1O (some centres undefined) | 225 |
| CN1CCOC(c2ccccc2)c2ccccc2C1 (centres undefined) | 50 |
| CC(=O)OCC(=O)[C@H]1CCC2C3CCC4=CC(=O)CC[C@]4(C)C3CC[C@@]21C (some centres undefined) | 3000 |
| Cc1cc(C(C)(C)C)cc(C)c1CC1=NCCN1 | 250 |
| C[N+](C)(C)CCOC(N)=O | 3000 |
| OCC(S)CS (centres undefined) | 300 |
| C[N+](C)(C)CC(=O)[O-] | 3000 |
| N#C/C(=C\c1ccc(O)cc1)C(=O)O | 50 |
| CC(N)CCCC(C)(C)O (centres undefined) | 50 |
| CCCCCCCCCCCCCCCC(=O)OC/C=C(C)/C=C/C=C(C)/C=C/C1=C(C)CCCC1(C)C | 275 |
| C[C@@H]1CC2C3CCC4=CC(=O)C=C[C@]4(C)[C@@]3(F)[C@@H](O)C[C@]2(C)[C@@]1(O)C(=O)COP(=O)(O)O (some centres undefined) | 750 |
| NC(Cc1cc(I)c(Oc2ccc(O)c(I)c2)c(I)c1)C(=O)O (centres undefined) | 5000 |
| NS(=O)(=O)c1cc(C2(O)NC(=O)c3ccccc32)ccc1Cl (centres undefined) | 5000 |
